# Measured values reported in a melting point compilation (Tetko et al.).
row,melting point [°C],SMILES
1,213 to 215,O=C(O)c1c[nH]c2ncccc12
2,243 to 245,NC(=O)c1ccsc1NC(=O)CCC(=O)O
3,211 to 213,CS(=O)(=O)N1CCN(C(=O)c2ccc(O)cc2)CC1
4,214 to 216,CC(C)(C)CC(=O)Nc1ccc(Cl)c(C(=O)O)c1
5,155 to 165,CCOc1ccc2oc(C(=O)O)c(C)c2c1
6,129 to 131,Nc1ccc(Oc2ccncc2)c(Cl)c1
7,147 to 149,NC(=O)N1CCC(O)CC1
8,176 to 178,Cc1cc(C(=O)O)cc(S(=O)(=O)N2CCC(C)CC2)c1C
9,162 to 164,COC(=O)c1nc(Cl)c2ccccc2c1O
10,62 to 64,O=[N+]([O-])c1ccc(OCCO)cc1C(F)(F)F
11,69 to 71,Cc1oc2ccccc2c1C=O
12,93 to 97,Nc1cc(Cl)ccc1-n1cncn1
13,71 to 73,COc1ccccc1N(CCC#N)C(=O)C(C)Cl (centres undefined)
14,126 to 128,CC(Oc1cccnc1)C(=O)O (centres undefined)
15,48 to 50,OCCn1ncc2ccccc21
16,49 to 51,O=S(=O)(Cl)c1ccc(C2CCCCC2)cc1
17,189 to 191,O=C(O)c1cc(-c2cccc(F)c2)no1
18,94 to 96,FC(F)(F)c1ccc2c(c1)NCCO2
19,110 to 114,O=C(O)CCNS(=O)(=O)c1ccccc1
20,145 to 147,CSCc1ccc(C(=O)O)cc1
21,79 to 81,CCOC(=O)Nc1ccc(Br)cc1

row,melting point [°C],SMILES
1,128 to 130,CN(C)S(=O)(=O)c1cccc(C#N)c1
2,179 to 181,Cc1noc2ncc(N)cc12
3,167 to 169,O=C(O)c1ccccc1NC(=O)C(F)(F)F
4,141 to 143,O=C(O)CSc1ccc(O)cc1
5,49 to 51,O=C(Cc1ccc(Cl)cc1)c1ccccn1
6,109 to 111,CC1=NN(c2nc(C)cc(C)n2)C(=O)C1
7,145 to 147,CC1CCc2c(sc(N)c2C#N)C1 (centres undefined)
8,129 to 131,Cc1nnc(NCCC(C)C)c2ccccc12
9,39 to 41,CC(C)c1nc(N)no1
10,255 to 257,O=C(O)C1(Cc2nc3ccccc3[nH]2)CCCC1
11,254 to 256,COCCNS(=O)(=O)c1ccc(C(=O)O)cc1
12,239 to 241,Cc1ccc2c(c1)C(=NO)C(=O)N2
13,176 to 178,NNC(=O)Nc1cc(F)cc(F)c1
14,89 to 91,O=C(O)C1CC1c1c(F)cccc1F (centres undefined)
15,99 to 101,NC(CN1CCCC1=O)c1ccccc1 (centres undefined)
16,159 to 163,O=C(O)C=Cc1ccc(OC(F)(F)C(F)C(F)(F)F)cc1 (centres undefined)
17,207 to 209,O=C(O)C1CC(=O)N(c2cccc3ccccc23)C1 (centres undefined)
18,145 to 147,CCCOC(=O)c1cc(-c2cncnc2)ccc1N
19,80 to 82,Cc1ccc([N+](=O)[O-])c(C)c1N
20,134 to 136,Nc1ccc(C(=O)N2CCOCC2)cc1
21,210 to 212,O=C(O)c1cnc2c(cnn2Cc2ccccc2)c1

row,melting point [°C],SMILES
1,62 to 64,O=S1(=O)C=CCC1
2,159 to 161,O=C1CSC(=S)N1c1cccnc1
3,141 to 143,CC(=O)N1CC(C)CNc2ccccc21 (centres undefined)
4,186 to 188,ON=Cc1ccc(N2CCOCC2)cc1
5,141 to 143,NCc1nc(-c2cccs2)no1
6,78 to 80,COc1cc(OC)cc(N2CCC(Br)C2=O)c1 (centres undefined)
7,228 to 230,O=C(O)c1ccccc1-c1cncnc1
8,104 to 106,COC(=O)c1cc(S(=O)(=O)Cl)c(F)cc1F
9,159 to 161,CC(NC(N)=O)C12CC3CC(CC(C3)C1)C2 (centres undefined)
10,162 to 164,COc1ccccc1NC(=O)c1ccc(N)cc1
11,118 to 120,Nc1cccc(C(=O)NCC(F)(F)F)c1
12,120 to 122,COC(=O)Nc1ccccc1O
13,145 to 147,Cc1ccc(C(N)=O)c(F)c1
14,145 to 147,CC(C)NCc1nc2ccccc2c(=O)[nH]1
15,177 to 179,CCC(CC)NC(=O)C(=O)NN
16,146 to 148,O=C(O)c1nnn(-c2ccc(F)cc2)c1C(F)(F)F
17,149 to 151,Nc1ccc(Oc2ccc(F)cc2)c2ccncc12
18,78 to 80,CCCC1CCc2nc(N)sc2C1 (centres undefined)
19,212 to 214,O=c1[nH]c(N2CCOCC2)cc2ccccc12
20,163 to 165,COC(=O)c1cc(Cl)c2cc(Br)ccc2n1
21,136 to 138,Nc1ccc(S(=O)(=O)NCc2ccc(F)cc2)cc1

# Second part, the compound before the results:
row,SMILES,melting point [°C]
1,Cc1ccc2[nH]c3c(c2c1)CC(C)(C)CC3,114 to 116
2,CC(=O)c1ccc(OCc2ccccc2C)cc1,98 to 100
3,O=c1[nH]cnc2c(Br)cccc12,317 to 319
4,N#Cc1c(N2CCCC2)n[nH]c1N,208 to 210
5,CC(=O)c1ccc(NS(=O)(=O)c2ccc(Cl)cc2)cc1,132 to 134
6,Cc1cc2nc(-c3ccccc3)cc(C(=O)O)c2cc1C,251 to 253
7,CCOC(=O)CN1C(=O)CNC1=O,109 to 111
8,COc1ccccc1C(C)NC(=O)C(C)Cl (centres undefined),109 to 111
9,O=C(O)CC1COC(=O)C1 (centres undefined),83 to 85
10,Cc1nn(-c2ccccc2)c(C(F)(F)F)c1C(=O)O,146 to 148
11,OCc1ccc(F)cc1Br,69 to 71
12,CC(C)(C)OC(=O)NCCN=C=O,102 to 104
13,CCCc1onc(C)c1C(=O)O,107 to 109
14,O=C(O)c1cc2c(c(S(=O)(=O)Cl)c1)CCC2,197 to 199
15,Cc1ccc2c(c1)C(=O)N(CCC(=O)O)C2=O,163 to 165
16,O=C(Nc1ccccc1F)Nc1cccc2c1CCNC2,157 to 159
17,COCCNC(N)=O,72 to 74
18,COc1ccc(-c2ccc(C(=O)O)c(F)c2)c(F)c1,212 to 214
19,COC(=O)c1cc2cc(CBr)ccc2o1,108 to 110
20,COc1ccc(-c2cc(C(=O)NN)c3ccccc3n2)cc1OC,181 to 183
21,Cc1ccc2cc(C(=O)O)c(C)nc2c1,197 to 199

row,SMILES,melting point [°C]
1,O=C(O)c1cncc(OCC(F)F)c1,166 to 168
2,CCCN1C(=O)NC(C)(C)C1=O,109 to 111
3,NC(=NO)C1CCCc2ccccc21 (centres undefined),133 to 135
4,O=[N+]([O-])c1cnc2c(c1)CCC2,85 to 87
5,CNC1CCS(=O)(=O)c2ccc(Br)cc21 (centres undefined),108 to 110
6,Cc1cccc(N)c1C(N)=O,141 to 143
7,CCCNC(=O)c1cccc(O)c1,68 to 70
8,O=[N+]([O-])c1c[nH]nc1-c1ccncc1,216 to 218
9,C/C(=C\C(=O)O)C12CC3CC(CC(C3)C1)C2,169 to 171
10,Cc1c(C(=O)O)c(=O)oc2ccccc12,163 to 165
11,c1ccc(-c2nc[nH]n2)cc1,117 to 119
12,CCOC(=O)C1CCN(C(=O)c2ccccc2)CC1,84 to 86
13,NCc1ccc(C(=O)NCC(N)=O)cc1,199 to 201
14,O=C(O)C(=O)Nc1ccc(Br)cc1C(F)(F)F,116 to 118
15,O=C(O)c1ccc2nnnn2c1,216 to 218
16,Cc1cc(=O)n2c([nH]c3ccccc32)c1C#N,270 to 272
17,O=C1c2ccc([N+](=O)[O-])cc2C(=O)N1c1ccncc1,259 to 261
18,Cc1cc(N)ccc1S(C)(=O)=O,144 to 146
19,Cc1ccc(CC(=O)O)cn1,159 to 161
20,O=S(=O)(Nc1cc(F)cc(F)c1)c1ccc(Cl)nc1,199 to 201
21,Cc1ccc(Oc2ccc(N)cc2)nc1,90 to 92

row,SMILES,melting point [°C]
1,CCn1c(C)cc(C=O)c1C,87 to 89
2,Cc1cc(=O)[nH]c(-c2ccnc(Cl)c2)n1,269 to 271
3,C=CCC(NC(=O)OCc1ccccc1)c1ccccc1 (centres undefined),65 to 67
4,Cc1ccc(NS(=O)(=O)c2cc(C(=O)O)ccc2C)cc1,55 to 57
5,Cc1nc(N)cc(Cl)n1,191 to 193
6,N#Cc1c(F)cccc1S(=O)(=O)Cl,63 to 65
7,O=C(O)C1CCN(c2ncccn2)CC1,94 to 96
8,O=C(O)c1ccc([N+](=O)[O-])cc1Br,164 to 166
9,Nc1nc(Cl)c(Cl)c(N)c1Cl,206 to 208
10,COc1cc(C#N)ccn1,94 to 96
11,O=C(O)c1cccnc1C1CC1,196 to 198
12,Cc1ccc(S(=O)(=O)Oc2ncnc3c(F)cc(Br)cc23)cc1,204 to 206
13,CCOc1c(Br)cc(C=O)cc1OC,84 to 86
14,OC1(Cc2cccc(F)c2)CCNC1 (centres undefined),59 to 61
15,Cn1nc(Br)c2c(N)ncnc21,228 to 230
16,Cc1cccc(-c2nc3cc(Cl)ccc3[nH]2)c1O,249 to 251
17,Cc1cc(C)n2ncc(C(=O)O)c2n1,176 to 178
18,COC(=O)COc1ccc(N)c(C)c1,104 to 106
19,CC(Cl)C(=O)NC1(C#N)CCCCC1 (centres undefined),100 to 102
20,O=C(O)c1cccc(S(=O)(=O)NC2CCOC2=O)c1 (centres undefined),220 to 222
21,O=C(CCl)NCCC(c1ccccc1)c1ccccc1,104 to 107

row,SMILES,melting point [°C]
1,Nc1nnc(-c2ccccn2)[nH]1,199 to 201
2,Nc1ncncc1-c1ccc(Cl)cc1,195 to 197
3,NC(=O)CCn1ccc(N)n1,142 to 144
4,CC(Cl)C(=O)NC(C)c1ccc(Cl)cc1 (centres undefined),127 to 129
5,Cc1ccc(C)c2sc(N)nc12,151 to 153
6,O=C(CCl)Nc1cc(Cl)ccc1F,98 to 102
7,Cc1nc2c(c(C)c1CN)c(=O)[nH]n2C,311 to 313
8,Clc1nnc(-c2ccccc2)n1C1CC1,159 to 161
9,Cc1cc(Cl)n2nc(C(F)(F)F)nc2n1,106 to 108
10,O=c1[nH]c(CCl)nc2scc(-c3cccs3)c12,219 to 221
11,Cc1nnc(-c2cccc(C(=O)O)c2)o1,241 to 243
12,CCCC(C(=O)O)N1CCN(C(=O)OC(C)(C)C)CC1 (centres undefined),149 to 151
13,CCOC(=O)c1nc2ccc(Br)cc2c(=O)[nH]1,261 to 263
14,CC(=O)CC(=O)Nc1ccccc1F,75 to 77
15,Nc1cc2c(cc1C(=O)O)OCCO2,189 to 191
16,COc1ccc(C(N)=NO)cn1,162 to 164
17,O=C1COc2cc(C(=O)O)ccc2N1,321 to 323
18,CC1=NS(=O)(=O)NC(C)=C1CC(=O)O,185 to 187
